1 substance from patent publication US9944677B2, “Selective inhibitor of angiotensin II” (GEORGETOWN UNIVERSITY, priority 2013, dated 2018) can be followed below.

The subject of the data set is rats. In words: Behavioral arousal, locomotion and grooming behavior. The conditions noted are these: rat, in vivo.

Ends that are not written are not given here.

For the substance MAGILSG [PEP7, MAGILSG (SEQ ID NO: 1)], the “Effect on behavioral arousal, locomotion and grooming behavior” value is on record as “did not have an effect”.
